From US6875761B2 (Eisai Co., Ltd., priority 1997, dated 2005)
pKi: −log10 of the molar value. Structures can show the parent of a compound that is named as a salt.

Key:
serotonin 2 receptor = biological target: T1, serotonin 2 receptor (Rattus norvegicus, UniProt P14842); assay: Binding test on [3H] ketanserin, cerebral cortex receptor fraction; design: species or system SD rats; conditions: 0.3 nM [3H] ketanserin, 37° C. 15 min, read-out: 5HT2
T1 construct: To the receptor fraction of the cerebral cortex were added a test compound and 0.3 nM of [^3H] ketanserin; from tissue; host or cells: rat cerebral cortex membrane fraction

serotonin 1A receptor = biological target: T2, serotonin 1A receptor (Rattus norvegicus, UniProt P19327); assay: Binding test on [3H] 8-hydroxy-dipropylaminotetralin, hippocampus receptor fraction; design: species or system SD rats; conditions: rat hippocampus receptor fraction, 0.5 nM [3H] 8-OH-DPAT, room temperature 30 min; read-out: 5HT1
T2 construct: To the receptor fraction of the hippocampus were added a test compound and 0.5 nM of [^3H]; 8-hydroxy-dipropylaminotetralin; from tissue; host or cells: rat hippocampus membrane fraction
T2 sequence (P19327 1-422): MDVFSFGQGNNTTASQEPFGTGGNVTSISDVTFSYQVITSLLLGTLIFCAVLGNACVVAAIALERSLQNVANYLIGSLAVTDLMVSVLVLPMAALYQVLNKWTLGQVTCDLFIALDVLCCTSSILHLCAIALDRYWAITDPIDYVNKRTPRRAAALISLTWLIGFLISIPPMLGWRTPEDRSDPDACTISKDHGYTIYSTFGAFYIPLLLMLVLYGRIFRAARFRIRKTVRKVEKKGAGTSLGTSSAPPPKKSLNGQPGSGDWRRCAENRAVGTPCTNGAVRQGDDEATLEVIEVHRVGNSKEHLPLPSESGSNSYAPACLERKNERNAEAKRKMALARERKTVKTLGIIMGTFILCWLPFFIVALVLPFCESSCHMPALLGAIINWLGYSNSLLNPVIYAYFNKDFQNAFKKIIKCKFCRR

T1 sequence (P14842 whole entry): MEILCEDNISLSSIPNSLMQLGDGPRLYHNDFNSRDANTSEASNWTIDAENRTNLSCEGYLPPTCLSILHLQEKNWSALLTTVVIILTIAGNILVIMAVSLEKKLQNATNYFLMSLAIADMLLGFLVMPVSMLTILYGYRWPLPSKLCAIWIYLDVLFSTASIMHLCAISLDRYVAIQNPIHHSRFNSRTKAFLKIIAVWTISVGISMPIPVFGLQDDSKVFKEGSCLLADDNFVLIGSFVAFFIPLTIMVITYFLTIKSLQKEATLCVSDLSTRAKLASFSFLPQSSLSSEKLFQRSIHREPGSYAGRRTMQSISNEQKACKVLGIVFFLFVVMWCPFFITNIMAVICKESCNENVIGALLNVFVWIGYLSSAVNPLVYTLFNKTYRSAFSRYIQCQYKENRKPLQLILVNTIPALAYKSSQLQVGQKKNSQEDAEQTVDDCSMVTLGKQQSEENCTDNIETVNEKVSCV

pKi (serotonin 2 receptor) | pKi (serotonin 1A receptor) | SMILES
8.01 | 7.73 | CCC(=O)NCc1ccc(-c2cc3ccccc3c(N3CCN(CC)CC3)n2)cc1 [Example 85, 3-(4-Ethylcarbonylaminomethylphenyl)-1-(4-ethylpiperazin-1-yl)isoquinoline Hydrochloride]
8.28 | 7.93 | CCCC(=O)NCc1ccc(-c2cc3ccccc3c(N3CCN(CC)CC3)n2)cc1 [Example 86, 3-(4-Propylcarbonylaminomethylphenyl)-1-(4-ethylpiperazin-1-yl)isoquinoline Hydrochloride]
7.77 | 7.77 | CCNC(=O)Cc1ccc(-c2cc3ccccc3c(N3CCN(CC)CC3)n2)cc1 [Example 87, 3-(4-Ethylaminocarbonylmethylphenyl)-1-(4-ethylpiperazin-1-yl)isoquinoline Hydrochloride]
7.93 | 8.03 | CCCNC(=O)Cc1ccc(-c2cc3ccccc3c(N3CCN(CC)CC3)n2)cc1 [Example 88, 3-(4-Propylaminocarbonylmethylphenyl)-1-(4-ethylpiperazin-1-yl)isoquinoline Hydrochloride]
8.00 | 8.20 | CCCCNC(=O)Cc1ccc(-c2cc3ccccc3c(N3CCN(CC)CC3)n2)cc1 [Example 89, 3-(4-Butylaminocarbonylmethylphenyl)-1-(4-ethylpiperazin-1-yl)isoquinoline Hydrochloride]
7.89 | 8.35 | CCN1CCN(c2nc(-c3ccc(CS(C)(=O)=O)cc3)cc3ccccc23)CC1 [Example 90, 3-(4-Methylsulfonylmethylphenyl)-1-(4-ethylpiperazin-1-yl)isoquinoline Hydrochloride]
8.80 | 8.96 | CCN1CCN(c2nc(-c3ccc(CNS(=O)(=O)CC)c(Cl)c3)cc3ccccc23)CC1 [Example 91, 3-(3-Chloro-4-ethylsulfonylaminomethylphenyl)-1-(4-ethylpiperazin-1-yl)isoquinoline Hydrochloride]
9.15 | 9.05 | CCCS(=O)(=O)NCc1ccc(-c2cc3ccccc3c(N3CCN(CC)CC3)n2)cc1Cl [Example 92, 3-(3-Chloro-4-propylsulfonylaminomethylphenyl)-1-(4-ethylpiperazin-1-yl)isoquinoline Hydrochloride]
7.70 | 7.40 | CCN1CCN(c2nc(-c3ccc4c(c3)CC(CO)CO4)cc3ccccc23)CC1 (centres unmarked) [Example 122, 3-(3-Hydroxymethylchroman-6-yl)-1-(4-Ethylpiperazin-1-yl)Isoquinoline Hydrochloride]
8.52 | 7.65 | CCCC(=O)Nc1ccc(-c2cc3ccccc3c(N3CCN(CC)CC3)n2)cn1 [Example 128, 3-(2-propylcarbonylaminopyridin-5-yl)-1-(4-ethylpiperazin-1-yl)isoquinoline hydrochloride]

The next lines start with the compound.

SMILES | pKi (serotonin 2 receptor) | pKi (serotonin 1A receptor)
CCN1CCN(c2nc(-c3ccc(C4CCOCC4)cc3)cc3ccccc23)CC1 [Example 83, 3-[4-(Tetrahydropyran-4-yl)phenyl]-1-(4-ethylpiperazin-1-yl)isoquinoline Hydrochloride] | 8.37 | 7.12
CCN1CCN(c2nc(-c3ccc(C4=CCOCC4)cc3)cc3ccccc23)CC1 [Example 84, 3-[4-(5,6-Dihydro-2H-pyran-4-yl)phenyl]-1-(4-ethylpiperazin-1-yl)isoquinoline Hydrochloride] | 9.05 | 7.14
CCN1CCN(c2nc(-c3ccc(CN4CCOCC4)cc3)cc3ccccc23)CC1 [Example 93, 3-(4-Morpholinylmethylphenyl)-1-(4-ethylpiperazin-1-yl)isoquinoline Hydrochloride] | 7.25 | 7.97
CCN1CCN(c2nc(-c3ccc(CN4CCSCC4)cc3)cc3ccccc23)CC1 [Example 94, 3-(4-Thiomorpholinylmethylphenyl)-1-(4-ethylpiperazin-1-yl)isoquinoline Hydrochloride] | 7.39 | 8.19
CCN1CCN(c2nc(-c3ccc(N4CCOC4=O)cc3)cc3ccccc23)CC1 [Example 95, 3-[4-(3-Oxazolidinone)phenyl]-1-(4-ethylpiperazin-1-yl)isoquinoline Hydrochloride] | 7.67 | 8.11
CCN1CCN(c2nc(-c3ccc(N4CCC5(CC4)OCCO5)cc3)cc3ccccc23)CC1 [Example 96, 3-[4-(4,4-Ethylenedioxypiperidin-1-yl)phenyl]-1-(4-ethylpiperazin-1-yl)isoquinoline] | 10.00 | 6.86
CCN1CCN(c2nc(-c3ccc(N4CCC(O)CC4)cc3)cc3ccccc23)CC1 [Example 97, 1-(4-Ethylpiperazin-1-yl)-3-[4-(4-hydroxypiperidin-1-yl)phenyl]isoquinoline Trihydrochloride] | 7.88 | 7.46
CCN1CCN(c2nc(-c3ccc(N4CCC(OC)CC4)cc3)cc3ccccc23)CC1 [Example 98, 1-(4-Ethylpiperazin-1-yl)-3-[4-(4-methoxypiperidin-1-yl)phenyl]isoquinoline Trihydrochloride] | 8.57 | 7.21
CCN1CCN(c2nc(-c3ccc(N4CCN(C(C)=O)CC4)nc3)cc3ccccc23)CC1 [Example 99, 3-[2-(4-Acetylpiperazin-1-yl)pyridin-5-yl]-1-(4-ethylpiperazin-1-yl)isoquinoline Trihydrochloride] | 8.21 | 8.46
CCN1CCN(c2nc(-c3ccc(N4CCN(C(C)=O)CC4)cc3)cc3ccccc23)CC1 [Example 100, 3-[4-(4-Acetylpiperazin-1-yl)phenyl]-1-(4-ethylpiperazin-1-yl)isoquinoline Trihydrochloride] | 8.25 | 7.90
CCN1CCN(c2nc(C(C)c3ccc(OC)cc3)cc3ccccc23)CC1 (stereo not drawn) [Example 102, 3-[α-Methyl-(4-methoxybenzyl)]-1-(4-ethylpiperazin-1-yl)isoquinoline Oxalate] | 6.88 | 6.89
CCN1CCN(c2nc(C(O)c3ccc(OC)cc3)cc3ccccc23)CC1 (stereo not drawn) [Example 104, 3-[α-Hydroxy-(4-methoxybenzyl)]-1-(4-ethylpiperazin-1-yl)isoquinoline Oxalate] | 7.00 | 6.96
CCN1CCN(c2nc(CCc3ccc(OC)cc3)cc3ccccc23)CC1 [Example 106, 1-(1-Ethylpiperazin-4-yl)-3-(4-methoxyphenethyl)isoquinoline] | 7.51 | 7.15
CCN1CCN(c2nc(CCc3cccc(OCCO)c3)cc3ccccc23)CC1 [Example 108, 1-(1-Ethylpiperazin-4-yl)-3-[3-(2-hydroxyethoxy)phenethyl]isoquinoline] | 7.47 | 6.81
CCN1CCN(c2nc(CCCc3ccccc3OCCO)cc3ccccc23)CC1 [Example 110, 1-(1-Ethylpiperazin-4-yl)-3-[3-[2-(2-hydroxyethoxy)phenyl]propyl]isoquinoline] | 6.96 | 7.23
CCN1CCN(c2nc(C(=O)c3ccccc3OC)cc3ccccc23)CC1 [Example 111, 3-(2-Methoxyphenylcarbonyl)-1-(4-ethylpiperazin-1-yl)isoquinoline Oxalate] | 7.05 | 7.99
CCN1CCN(c2nc(C3CCc4ccc(OC)cc43)cc3ccccc23)CC1 (centres unmarked) [Example 114, 3-(6-Methoxyindan-1-yl)-1-(4-ethylpiperazin-1-yl)isoquinoline Oxalate] | 7.30 | 6.78
CCN1CCN(c2nc(-c3ccc(OCCO)nc3)cc3ccccc23)CC1 [Example 125, 1-(1-Ethylpiperazin-4-yl)-3-[2-(2-Hydroxyethoxy)Pyridin-5-yl]Isoquinoline] | 8.16 | 7.57
CCN1CCN(c2nc(-c3ccc(S(C)(=O)=O)nc3)cc3ccccc23)CC1 [Example 129, 3-[(2-Methylsulfonylpyridin)-5-yl]-1-(4-Ethylpiperazin-1-yl)Isoquinoline Hydrochloride] | 7.74 | 7.67
CCN1CCN(c2nc(-c3ccc(S(=O)(=O)CC)nc3)cc3ccccc23)CC1 [Example 130, 3-[(2-Ethylsulfonylpyridin)-5-yl]-1-(4-Ethylpiperazin-1-yl)Isoquinoline Hydrochloride] | 7.77 | 7.61
CCCCc1ccc(-c2cc3ccccc3c(N3CCN(CC)CC3)n2)cn1 [Example 131, 1-(1-Ethylpiperazin-4-yl)-3-(2-Butylpyridin-5-yl)Isoquinoline] | 8.24 | 8.19
CCN1CCN(c2nc(-c3ccc(CCCF)cn3)cc3ccccc23)CC1 [Example 132, 1-(1-Ethylpiperazin-4-yl)-3-[5-(3-Fluoropropyl)Pyridin-2-yl)Isoquinoline] | 7.63 | 8.82
CCN1CCN(c2nc(-c3ccc(CCCF)nc3)cc3ccccc23)CC1 [Example 133, 1-(1-Ethylpiperazin-4-yl)-3-[2-(3-Fluoropropyl)Pyridin-5-yl]Isoquinoline] | 8.21 | 8.54
CCN1CCN(c2nc(-c3ccc(CCCO)cn3)cc3ccccc23)CC1 [Example 134, 1-(1-Ethylpiperazin-4-yl)-3-[5-(3-Hydroxypropyl)Pyridin-2-yl]Isoquinoline] | 7.91 | 8.31
